Values after ≈ are worked out from the molar mass of the structure shown. Values belong to the molecule of their own block, whether it stands above or below them.
Experiments:
[1] = Kinetic solubility of the compound; assay type: physicochemical; settings: read-out: Kinetic_solubility
[2] = molecular target: T1, Tyrosine-protein kinase BTK (Homo sapiens, UniProt Q06187); experiment: Inhibition of BTK (unknown origin) using Poly(Glu4,Tyr1) as substrate in presence of ATP
[3] = molecular target: T1, Tyrosine-protein kinase BTK; experiment: Inhibition of BTK (unknown origin) incubated for 40 mins by radiometric assay
[4] = Antiproliferative activity against human MINO cells reduction in cell viability incubated for 72 hrs by CellTiter-Glo luminescent cell viability assay; assay type: functional, cell-based
Raji [5] = experiment: Antiproliferative activity against human Raji cells assessed as reduction in cell viability measured after 72 hrs by CCK-8 assay; assay type: functional, cell-based
NAMALVA = experiment: Antiproliferative activity against human NAMALWA cells assessed as reduction in cell viability measured after 72 hrs by CCK-8 assay; assay type: functional, cell-based
[6] = molecular target: T1, Tyrosine-protein kinase BTK; experiment: Inhibition of BTK (unknown origin) incubated for 60 mins by ADP-Glo kinase assay
U-937 [7] = experiment: Induction of apoptosis in human U-937 cells assessed as […] at 40 nM incubated for 48 hrs by AnnexinV-FITC/propidium iodide staining based flow cytometry analysis relative to control; assay type: functional
Ramos [8] = experiment: Antiproliferative activity against human Ramos cells assessed as reduction in cell viability measured after 72 hrs by CCK-8 assay; assay type: functional, cell-based
HL-60 = experiment: Antiproliferative activity against human HL-60 cells assessed as reduction in cell viability measured after 72 hrs by CCK-8 assay; settings: HL-60, 72 h
U-937 [9] = experiment: Antiproliferative activity against human U-937 cells assessed as reduction in cell viability measured after 72 hrs by CCK-8 assay; settings: U-937, 72 h
Bcr/Abl fusion protein = Bcr/Abl fusion protein (Homo sapiens, UniProt P00519); experiment: Inhibition of BCR-ABL (unknown origin) using peptide GGEAIYAAPFKK as substrate; assay type: protein assay
Chain of Bcr/Abl fusion protein (P00519 whole entry, the tested form may be a part): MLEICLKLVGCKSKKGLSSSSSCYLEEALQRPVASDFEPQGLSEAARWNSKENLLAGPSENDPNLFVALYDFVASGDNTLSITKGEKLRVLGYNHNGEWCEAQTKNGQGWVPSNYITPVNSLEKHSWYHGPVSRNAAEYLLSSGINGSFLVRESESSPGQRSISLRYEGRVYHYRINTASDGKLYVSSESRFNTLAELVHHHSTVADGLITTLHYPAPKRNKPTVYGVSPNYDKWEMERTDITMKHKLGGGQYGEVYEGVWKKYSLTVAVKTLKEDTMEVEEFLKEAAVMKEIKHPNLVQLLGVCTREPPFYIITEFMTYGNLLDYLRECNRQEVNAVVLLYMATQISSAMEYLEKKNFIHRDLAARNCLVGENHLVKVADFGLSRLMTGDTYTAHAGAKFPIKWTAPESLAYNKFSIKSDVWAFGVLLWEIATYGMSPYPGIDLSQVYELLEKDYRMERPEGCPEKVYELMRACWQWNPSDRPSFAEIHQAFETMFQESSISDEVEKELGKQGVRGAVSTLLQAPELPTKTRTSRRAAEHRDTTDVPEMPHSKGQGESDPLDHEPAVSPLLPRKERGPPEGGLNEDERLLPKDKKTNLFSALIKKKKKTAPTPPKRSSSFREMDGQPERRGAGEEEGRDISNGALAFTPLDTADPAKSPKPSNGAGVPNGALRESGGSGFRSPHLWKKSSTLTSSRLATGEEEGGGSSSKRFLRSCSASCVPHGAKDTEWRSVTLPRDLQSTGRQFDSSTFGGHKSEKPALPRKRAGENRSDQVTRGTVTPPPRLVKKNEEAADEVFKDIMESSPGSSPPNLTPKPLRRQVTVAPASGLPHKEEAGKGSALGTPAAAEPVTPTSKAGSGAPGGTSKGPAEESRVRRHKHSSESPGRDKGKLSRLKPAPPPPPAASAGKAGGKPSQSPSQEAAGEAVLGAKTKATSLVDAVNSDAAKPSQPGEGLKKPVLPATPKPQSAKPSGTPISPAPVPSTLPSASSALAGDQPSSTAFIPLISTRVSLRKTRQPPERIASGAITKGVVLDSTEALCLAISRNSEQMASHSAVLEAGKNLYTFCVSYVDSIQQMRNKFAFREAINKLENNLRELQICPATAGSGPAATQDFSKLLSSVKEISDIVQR
Chain of Bcr/Abl fusion protein (P11274 whole entry, further chain, the tested form may be a part): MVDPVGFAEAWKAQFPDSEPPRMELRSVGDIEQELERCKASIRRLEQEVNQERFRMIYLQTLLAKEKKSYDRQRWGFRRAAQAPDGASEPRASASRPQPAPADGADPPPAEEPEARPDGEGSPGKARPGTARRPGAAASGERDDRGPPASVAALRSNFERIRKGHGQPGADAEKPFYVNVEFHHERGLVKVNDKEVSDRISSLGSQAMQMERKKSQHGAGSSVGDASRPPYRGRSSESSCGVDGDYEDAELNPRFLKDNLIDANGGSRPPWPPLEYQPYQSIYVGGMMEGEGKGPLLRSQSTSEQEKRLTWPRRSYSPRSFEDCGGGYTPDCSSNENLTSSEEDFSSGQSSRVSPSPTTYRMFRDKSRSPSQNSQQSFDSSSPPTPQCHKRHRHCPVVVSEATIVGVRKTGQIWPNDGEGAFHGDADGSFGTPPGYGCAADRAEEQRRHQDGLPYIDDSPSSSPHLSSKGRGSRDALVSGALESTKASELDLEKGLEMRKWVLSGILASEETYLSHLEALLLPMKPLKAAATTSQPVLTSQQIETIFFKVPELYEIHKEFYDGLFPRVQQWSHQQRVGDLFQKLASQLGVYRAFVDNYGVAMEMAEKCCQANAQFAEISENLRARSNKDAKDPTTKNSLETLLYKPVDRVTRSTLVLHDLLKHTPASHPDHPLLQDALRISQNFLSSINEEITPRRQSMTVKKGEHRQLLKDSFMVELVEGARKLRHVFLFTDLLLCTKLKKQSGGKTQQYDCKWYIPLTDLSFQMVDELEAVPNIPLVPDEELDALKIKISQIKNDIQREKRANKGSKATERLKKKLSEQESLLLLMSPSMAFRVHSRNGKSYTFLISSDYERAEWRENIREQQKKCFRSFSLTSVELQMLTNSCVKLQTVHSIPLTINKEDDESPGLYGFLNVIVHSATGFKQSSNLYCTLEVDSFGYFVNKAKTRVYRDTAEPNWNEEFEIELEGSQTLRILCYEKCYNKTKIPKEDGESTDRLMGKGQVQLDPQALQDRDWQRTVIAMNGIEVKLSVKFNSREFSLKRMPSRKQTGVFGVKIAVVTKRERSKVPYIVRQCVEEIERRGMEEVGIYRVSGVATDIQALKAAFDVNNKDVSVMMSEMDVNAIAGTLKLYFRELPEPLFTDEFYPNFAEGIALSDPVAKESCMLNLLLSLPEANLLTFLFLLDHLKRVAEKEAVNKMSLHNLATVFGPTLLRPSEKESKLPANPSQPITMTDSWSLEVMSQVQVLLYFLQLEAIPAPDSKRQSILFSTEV

Ramos [10] = experiment: Antiproliferative activity against human Ramos cells assessed as growth inhibition incubated for 72 hrs by resazurin dye based fluorescence microplate reader analysis; assay type: functional
[11] = molecular target: T1, Tyrosine-protein kinase BTK; experiment: Inhibition of BTK (unknown origin) using Poly(Glu4,Tyr1) as substrate in presence of ATP by radiometric kinase assay
OCI-Ly10 = experiment: Antiproliferative activity against human OCILY10 cells assessed as inhibition of cell proliferation by MTT assay; assay type: functional, cell-based
HEK293 = experiment: Antiproliferative activity against human HEK293 cells assessed as reduction in cell viability by MTT assay; assay type: functional, cell-based
[12] = molecular target: T1, Tyrosine-protein kinase BTK; experiment: Inhibition of BTK (unknown origin) incubated for 10 mins by caliper mobility shift assay
[13] = Antiproliferative activity against human MINO cells assessed as inhibition of cell proliferation by MTT assay; assay type: functional, cell-based
DOHH-2 = experiment: Antiproliferative activity against human DOHH-2 cells assessed as inhibition of cell proliferation by MTT assay; assay type: functional, cell-based
L02 = experiment: Antiproliferative activity against human L02 cells assessed as reduction in cell viability by MTT assay; assay type: functional, cell-based
[14] = Oral bioavailability in rat at 30 mg/kg measured upto 8 hrs; assay type: ADME, organism-based; settings: in vivo
Rec1 = experiment: Antiproliferative activity against human REC1 cells assessed as inhibition of cell proliferation by MTT assay; assay type: functional, cell-based
Raji [15] = experiment: Antiproliferative activity against human Raji cells assessed as reduction in cell viability incubated for 96 hrs by MTT assay; assay type: functional, cell-based
TMD8 [16] = experiment: Antitumor activity against human TMD8 cells xenografted in SCID mouse assessed as tumor growth inhibition at 1.5 mg/kg, po bid administered daily 20 days by caliper analysis; assay type: functional; settings: TMD8, 480 h, time 20 day, read-out: TGI
[17] = Inhibition of recombinant human BTK cys481S mutant using Poly(Glu4,Tyr1) and ATP as substrate measured after 2 hrs by ADP-Glo kinase assay
TMD8 [18] = experiment: Antitumor activity against human TMD8 cells xenografted in SCID mouse assessed as tumor growth inhibition at 15 mg/kg, po bid administered daily 20 days by caliper analysis; assay type: functional; settings: TMD8, 480 h, time 20 day, read-out: TGI
TMD8 [19] = experiment: Antitumor activity against human TMD8 cells xenografted in SCID mouse assessed as tumor growth inhibition at 3 mg/kg, po bid administered daily 20 days by caliper analysis; assay type: functional; settings: TMD8, 480 h, time 20 day, read-out: TGI
[20] = molecular target: T1, Tyrosine-protein kinase BTK; experiment: Inhibition of recombinant human wild type BTK using Poly(Glu4,Tyr1) and ATP as substrate measured after 2 hrs by ADP-Glo kinase assay
TMD8 [21] = experiment: Antiproliferative activity against human TMD8 cells assessed as reduction in cell viability incubated for 96 hrs by MTT assay; assay type: functional, cell-based; settings: TMD8, 96 h
TMD8 [22] = experiment: Antiproliferative activity against human TMD8 cells assessed as reduction in cell viability incubated for 72 hrs by CCK-8 assay; assay type: functional, cell-based; settings: TMD8, 72 h
[23] = molecular target: Epidermal growth factor receptor (Homo sapiens, UniProt P00533); experiment: Inhibition EGFR (unknown origin) expressed in baculovirus expression system by ELISA
Chain of Epidermal growth factor receptor (P00533 whole entry): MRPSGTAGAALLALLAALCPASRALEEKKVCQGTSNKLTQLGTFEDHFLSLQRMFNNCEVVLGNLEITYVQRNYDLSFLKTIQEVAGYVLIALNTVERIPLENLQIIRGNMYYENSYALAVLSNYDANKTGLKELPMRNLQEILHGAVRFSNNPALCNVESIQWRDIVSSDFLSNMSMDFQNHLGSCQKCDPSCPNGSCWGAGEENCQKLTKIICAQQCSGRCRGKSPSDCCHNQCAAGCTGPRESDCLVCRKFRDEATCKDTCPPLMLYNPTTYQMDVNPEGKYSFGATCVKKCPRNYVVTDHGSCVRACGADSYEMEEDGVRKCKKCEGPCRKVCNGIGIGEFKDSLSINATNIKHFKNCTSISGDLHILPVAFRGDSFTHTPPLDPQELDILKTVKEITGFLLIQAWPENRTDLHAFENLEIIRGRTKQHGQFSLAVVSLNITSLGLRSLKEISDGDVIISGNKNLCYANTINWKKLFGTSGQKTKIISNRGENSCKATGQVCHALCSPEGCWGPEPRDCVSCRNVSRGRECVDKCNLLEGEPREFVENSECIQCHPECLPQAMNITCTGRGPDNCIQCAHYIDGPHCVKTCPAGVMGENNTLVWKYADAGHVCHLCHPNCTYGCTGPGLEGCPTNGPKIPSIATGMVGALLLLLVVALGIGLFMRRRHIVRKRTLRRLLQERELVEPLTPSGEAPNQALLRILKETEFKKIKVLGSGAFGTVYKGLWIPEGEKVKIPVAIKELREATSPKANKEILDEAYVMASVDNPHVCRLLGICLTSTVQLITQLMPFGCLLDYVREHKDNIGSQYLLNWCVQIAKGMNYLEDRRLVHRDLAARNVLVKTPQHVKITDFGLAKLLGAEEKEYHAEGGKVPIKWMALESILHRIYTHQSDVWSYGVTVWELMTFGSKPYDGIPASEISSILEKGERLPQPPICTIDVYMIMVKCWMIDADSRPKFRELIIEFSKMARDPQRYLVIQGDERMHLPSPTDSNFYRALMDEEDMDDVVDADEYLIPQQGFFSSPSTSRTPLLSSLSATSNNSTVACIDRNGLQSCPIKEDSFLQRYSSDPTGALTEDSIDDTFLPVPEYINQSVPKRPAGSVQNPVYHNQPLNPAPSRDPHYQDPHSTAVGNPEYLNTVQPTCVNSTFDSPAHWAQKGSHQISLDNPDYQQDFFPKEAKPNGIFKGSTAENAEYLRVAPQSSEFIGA

Z-138 = experiment: Antiproliferative activity against human Z138 cells reduction in cell viability incubated for 72 hrs by CellTiter-Glo luminescent cell viability assay; settings: Z-138, 72 h

T1 sequence (Q06187 whole entry): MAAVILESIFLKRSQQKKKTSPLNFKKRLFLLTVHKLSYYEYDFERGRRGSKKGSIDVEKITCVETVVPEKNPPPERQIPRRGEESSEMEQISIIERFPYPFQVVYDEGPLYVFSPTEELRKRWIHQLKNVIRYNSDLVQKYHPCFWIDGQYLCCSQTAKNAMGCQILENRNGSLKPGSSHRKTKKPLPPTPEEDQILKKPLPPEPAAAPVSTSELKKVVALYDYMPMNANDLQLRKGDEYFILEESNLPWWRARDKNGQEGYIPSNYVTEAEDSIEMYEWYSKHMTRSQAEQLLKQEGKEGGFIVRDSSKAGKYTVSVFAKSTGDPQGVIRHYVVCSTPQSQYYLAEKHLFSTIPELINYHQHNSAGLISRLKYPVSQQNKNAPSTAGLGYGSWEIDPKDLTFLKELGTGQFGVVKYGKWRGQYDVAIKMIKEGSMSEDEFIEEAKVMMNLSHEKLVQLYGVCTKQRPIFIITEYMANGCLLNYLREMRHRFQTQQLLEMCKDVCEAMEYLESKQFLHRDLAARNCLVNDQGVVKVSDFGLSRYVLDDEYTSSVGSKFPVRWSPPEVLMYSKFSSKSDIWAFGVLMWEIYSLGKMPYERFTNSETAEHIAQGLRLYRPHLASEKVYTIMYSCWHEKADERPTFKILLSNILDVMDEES

Compound: C=CS(=O)(=O)N1CCC(Cn2cc(-c3ccc4c(c3)OCO4)c3c(N)ncnc32)CC1
solubility kinetic [1]: 100 µg/mL (≈ 226 µM)
IC50 [2]: 1.32 nM

Compound: C=CC(=O)Nc1cccc(Nc2nc(Nc3ccc(Cn4cc(C)nc4CC)cc3)ncc2Cl)c1
IC50 (Raji [5]): < 10800 nM
IC50 (NAMALVA): < 10800 nM
IC50 [6]: 17.7 nM
Activity (U-937 [7]): 55%
IC50 (Ramos [8]): < 10800 nM
IC50 (HL-60): 109 nM
IC50 (U-937 [9]): 38 nM

Compound: CN1CCN(c2ccc(Nc3nc(Nc4ccc(F)c(F)c4)c4ncn(CC5CC5)c4n3)cc2F)CC1
IC50 (Bcr/Abl fusion protein): 580 nM
GI50 (Ramos [10]): 4100 nM
IC50 [11]: 2650 nM

Compound: C=CC(=O)Nc1cccc(Nc2nc(Nc3ccc(Cn4cc(C)nc4CC)cc3)ncc2F)c1
IC50 (Raji [5]): < 10800 nM
IC50 (NAMALVA): < 10800 nM
IC50 [6]: 42.4 nM
IC50 (Ramos [8]): < 10800 nM
IC50 (HL-60): 116 nM
IC50 (U-937 [9]): 106 nM

Compound: CN1CCN(c2ccc(Nc3nc(Nc4ccc(F)c(F)c4)c4ncn(CC5CC5)c4n3)cc2)CC1
GI50 (Ramos [10]): 4630 nM
IC50 [11]: 580 nM

Compound: C=CC(=O)Nc1cccc(N2C(=O)OC(C)c3cnc(Nc4ccc(N5CCN(C)CC5)cc4OC)nc32)c1 (stereo not given)
IC50 (TMD8 [22]): 28 nM
IC50 [2]: 7 nM
IC50 [23]: 47.4 nM

Compound: C=CC(=O)Nc1cccc(N2C(=O)OCc3cnc(Nc4ccc(N5CCN(C)CC5)cc4OC)nc32)c1
IC50 [2]: 4.7 nM
IC50 [23]: 28.8 nM

More lines, main results first:

IC50 [3]: 82 nM
Compound: Nc1ccc(Cn2nc(-c3ccc(Oc4ccccc4)cc3)c3c(N)ncnc32)cc1
IC50 [4]: 13900 nM

IC50 (OCI-Ly10): 160 nM
IC50 [12]: 2.5 nM
bioavailability [14]: 6%
Compound: C=C(Cl)C(=O)N1CCC[C@H](n2nc(-c3ccc(Oc4ccccc4)cc3)c3c(N)ncnc32)C1
IC50 (HEK293): 5460 nM
IC50 [13]: 560 nM
IC50 (DOHH-2): 220 nM
IC50 (L02): 15900 nM
IC50 (Rec1): 10 nM

IC50 [3]: 75 nM
Compound: Nc1cccc(Cn2nc(-c3ccc(Oc4ccccc4)cc3)c3c(N)ncnc32)c1
IC50 [4]: 9500 nM

IC50 (Raji [15]): 13200 nM
IC50 [17]: 14 nM
IC50 [20]: 1 nM
Compound: C=CC(=O)N1CC2CC(n3nc(-c4ccc(C(=O)Nc5ccccn5)cc4)c4c(N)ncnc43)CC2C1 (stereo not given)
inhibition in vivo at 1.5 mg/kg (TMD8 [16]): 10%
inhibition in vivo at 15 mg/kg (TMD8 [18]): 88%
inhibition in vivo at 3 mg/kg (TMD8 [19]): 50%
IC50 (TMD8 [21]): 0.78 nM

IC50 [3]: 27 nM
Compound: Nc1ncnc2c1c(-c1ccc(Oc3ccccc3)cc1)nn2Cc1cccc(NC(=O)CCl)c1
IC50 [4]: 900 nM

IC50 [3]: 36 nM
Compound: Nc1ncnc2c1c(-c1ccc(Oc3ccccc3)nc1)nn2C1CCCN(C(=O)CCl)C1 (stereo not given)
IC50 (Z-138): 400 nM
IC50 [4]: 400 nM

IC50 [2]: 1.71 nM
Compound: C=CC(=O)N1CCCC(Cn2cc(-c3ccc(Oc4ccccc4)cc3)c3c(N)ncnc32)C1 (single isomer, unassigned)

From ChEMBL document CHEMBL5149979, “Emerging small-molecule inhibitors of the Bruton's tyrosine kinase (BTK): Current development” (Eur J Med Chem, 2021)
